Tests used:
rAPPC100sub = experiment: Cell-free γ-secretase assay, rAPPC100sub (IP-MS), low-dose potentiation; type: biochemical; conditions: in vitro assay, recombinant substrate
From the text: We next tested all GSIs on cAPPC100sub and full‐length APP stably overexpressing cells. […] The low‐dose potentiation of γ‐secretase cleavage was further mechanistically probed using in vitro assays with recombinant substrates and IP‐MS.

SPPL2b = target: T1, SPPL2b (Homo sapiens, UniProt Q8TCT7); experiment: Cell-based SPPL2b cleavage assay, stable SPPL2b/FBA overexpressing HEK 293 cell line (ELISA); conditions: 16 h
T1 construct: expressed in transfected cells
T1 sequence (Q8TCT7 26-592): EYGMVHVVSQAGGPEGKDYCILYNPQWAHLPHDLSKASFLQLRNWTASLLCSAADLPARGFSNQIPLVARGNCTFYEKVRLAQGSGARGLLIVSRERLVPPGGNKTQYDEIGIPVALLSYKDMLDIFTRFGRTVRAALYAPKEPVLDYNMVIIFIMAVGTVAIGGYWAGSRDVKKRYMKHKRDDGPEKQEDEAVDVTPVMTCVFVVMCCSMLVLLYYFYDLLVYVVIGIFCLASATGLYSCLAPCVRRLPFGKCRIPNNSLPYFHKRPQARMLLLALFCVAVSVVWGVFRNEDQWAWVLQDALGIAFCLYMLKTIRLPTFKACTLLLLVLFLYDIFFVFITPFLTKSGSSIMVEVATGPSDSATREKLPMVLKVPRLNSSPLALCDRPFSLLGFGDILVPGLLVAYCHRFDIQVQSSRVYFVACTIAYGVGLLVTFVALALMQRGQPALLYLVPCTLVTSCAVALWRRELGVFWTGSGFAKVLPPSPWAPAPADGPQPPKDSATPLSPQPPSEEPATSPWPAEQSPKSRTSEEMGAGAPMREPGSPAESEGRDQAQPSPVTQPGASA
Protocol: It is known that SPP/SPPLs can be inhibited by select GSIs (Ran et al, 2015). Here, we tested the effect of various GSIs on the SPP/SPPL family members SPPL2a, SPPL2b, and SPP. We co‐transfected SPPLs with the BRI2 based chimeric SPP/SPPL substrate that we have referred to as FBA into HEK 293t cells. SPPL‐specific inhibitor (ZLL)2‐ketone was used as positive control. DAPT was not tested here as we and others have previously reported it had no effect on SPP activity at concentration up to 100 μM (Weihofen et al, 2003). […] Dose responses of BMS‐906024, RO4929097, and PF‐3084014 were performed with a similar strategy, but a stable SPPL2b/FBA overexpressing HEK 293 cell line was used instead of transient transfection (Fig 8B). […] Table 3 compares the GSIs’ potencies on γ‐secretase and SPPL2b. The average of IC50s on cNOTCH1sub, cNOTCH2sub, cNOTCH4sub, and APP was used as the GSI's potency on γ‐secretase.
SPPL2a, SPPL2b, SPP, and chimeric substrate FBA were generated as previously described (Ran et al, 2015). A20 cells (TIB‐208; ATCC, Manassas, VA, USA) were cultured in RPMI‐1640 medium (ATCC) supplied with 10% fetal bovine serum, 1% penicillin/streptomycin, and 0.05 mM 2‐mercaptoethanol (Life Technologies). Various concentrations of GSIs and (ZLL)2‐ketone as indicated in figures were applied to transfected HEK 293t cells at 70–90% confluence or A20 cells at a density of 5 × 10^5 cells/ml with fresh media in 48‐well format for 16 h. Cells and conditioned media were used for WB, IP, and ELISA.
Sandwich ELISAs used for Aβ detection were performed as previously described (Murphy et al, 1999; Ran et al, 2014). Briefly, Aβ and Aβ‐like peptides in conditioned media were captured with Ab5 antibody and detected with horseradish peroxidase labeled mAb 4G8 (Biolegend). Synthetic Aβ1‐40 was used as standard. All ELISAs were developed with TMB substrate (KPL, Gaithersburg, Maryland, USA). Bis‐Tris precast gels (Biorad, Hercules, CA, USA) were used for all SDS–PAGE. […] The supernatants were collected, and protein concentrations were determined by Bradford Assay. […]

[1] = system: MDA‐MB‐231 and MDA‐MB‐468 mammospheres; experiment: Secondary mammosphere formation / limiting dilution assay and CD44+CD24low flow cytometry; type: cell-based
Protocol: Suppression of breast cancer stem cells is thought to be a key mechanism of action for the anti‐tumor activity of GSIs in breast cancer models and in patient‐derived mammospheres (Takebe et al, 2015). […] Stem‐like cells are enriched in secondary mammospheres, but their number declines after four to five passages (Dontu et al, 2003; Dey et al, 2009). Therefore, we compared the GSIs in a secondary mammosphere formation assay at 1, 5, and 10 μM concentrations (Fig 7A and B for 10 μM and Appendix Fig S4 for 1 and 5 μM). We separately counted large mammospheres (> 500 μm in diameter) and small mammospheres (100–500 μm in diameter).
For limiting dilution assay, we used two distinct TNBC cell lines. MDA‐MB‐231 is molecularly “Mesenchymal”, PTEN wild type. MDA‐MB‐468 (ATCC, Manassas, VA) is molecularly “Basal‐like” and PTEN null. GSI‐treated (1, 5, and 10 μM twice/week, for 1 week) mammospheres were dissociated by trypsinization, and equal numbers of viable cells were re‐plated at clonal density (1,000, 100, and 10 cells) without GSIs. After 7‐day incubation, large mammospheres (> 500 μm) and small mammospheres (100–500 μm) were counted manually using a Nikon Eclipse Microscope. Next, we investigated whether PF‐3084014 selectively affected cancer stem‐like cells (CSCs) using both MDA‐MB‐231 and MDA‐MB‐468 cell lines. Mammospheres were treated with increasing concentration of PF‐3084014 for 1 week, and CSCs (CD44^+CD24^low) (Azzam et al, 2013) were analyzed by flow cytometry using anti‐human PE‐CD44 (Clone G44‐26) and FITC‐CD24 (Clone ML5) (BD Biosciences) antibody.

**Q.** For `CC(C)[C@H](O)C(=O)N[C@@H](C)C(=O)N[C@@H]1C(=O)N(C)CCc2ccccc21` [Semagacestat], which “concentration at which cleavage from rAPPC100sub was potentiated” value (rAPPC100sub) is on record?
**A.** 0.16 nM

**Q.** Which “concentration at which cleavage from rAPPC100sub was potentiated” value (rAPPC100sub) does the source give for `CN1C(=O)[C@@H](NC(=O)[C@H](CCC(F)(F)F)[C@H](CCC(F)(F)F)C(N)=O)N=C(c2ccccc2)c2ccccc21` [BMS‐906024] here?
**A.** 0.03 nM

**Q.** What about the IC50 (SPPL2b) of the same compound?
**A.** 28.3 nM

**Q.** With `CC(C)(C(=O)NCC(F)(F)C(F)(F)F)C(=O)N[C@@H]1C(=O)Nc2ccccc2-c2ccccc21` [RO4929097] as the compound, how does the IC50 (SPPL2b) read?
**A.** 72.8 nM

**Q.** With `CCC[C@H](N[C@H]1CCc2cc(F)cc(F)c2C1)C(=O)Nc1cn(C(C)(C)CNCC(C)(C)C)cn1` [PF‐3084014] as the compound, how does the “absolute cell counts of mammospheres” value ([1]; 5 and 10 μM, both cell lines) read?
**A.** significantly more potent than the other compounds

**Q.** What about the “percentage of CD44+CD24low cells” value ([1]; all concentrations tested, flow cytometry) of the same compound?
**A.** decrease in percentage

**Q.** What about the “total cell number and CSC fraction” value ([1]; both cell lines, 1 week treatment) of the same compound?
**A.** decreased the total cell number and the CSC fraction

**Q.** What about the “absolute numbers of CD44+CD24low cells” value ([1]; flow cytometry) of the same compound?
**A.** dose‐dependent decrease

**Q.** And the IC50 (SPPL2b)?
**A.** 1160 nM
